The record followed here is patent publication US4558122A, “Stable s-adenosylmethionine derivatives, the process for their preparation, and therapeutic compositions which contain them as active principle” (Bioresearch S.P.A., priority 1981, dated 1985).

Read-outs that look alike come from different tables or passages of the source.

The nature of series [1]: absorption "in situ" (intestinal sacs). In kind it is in vivo, rat. Particulars: rat, in situ intestinal sacs, 2 mg in 1 ml physiological solution, rats, H2 SO4 salts, m 0 or 1, n 3, read-out: PRODUCT ABSORPTION in sacs. The protocol: (§1) In the 1st test, known as "in situ" (intestinal sacs), 2 mg of each product to be tested in 1 ml of physiological solution were placed in intestinal sacs provided in rats under ether anesthesia. The rats were killed after 2 hours, and the residual content of the sac (wall+content) was analysed. In the 2nd test, portions of intestine turned inside out were used, incubated at 37° C. in accordance with Krebs Ringer against an external product concentration of 10^-4 M. The products were all salified with H2 SO4 to give salts in which m was 0 or 1 and n was 3.

Series [2] has as its system portions of intestine turned inside out. The series can be described thus: absorption by portions of intestine turned inside out. It counts as in vitro ADME. The protocol:
In the 2nd test, portions of intestine turned inside out were used, incubated at 37° C. in accordance with Krebs Ringer against an external product concentration of 10^-4 M. The products were all salified with H2 SO4 to give salts in which m was 0 or 1 and n was 3.

Series [3] is described as follows: physchem. In kind it is physicochemical. Particulars: water.
Series [4] is described as follows: stability in the dry state at 45° C. In kind it is physicochemical.
The test system of series [5] is intestinal sacs. Description: absorption "in situ" (intestinal sacs). In kind it is in vivo, rat. The settings on record: 2 mg in 1 ml physiological solution, rats, 2 hours; H2 SO4 salts, m 0 or 1, n 3. How it is done:
as §1

[6] abbreviates: 37° C., Krebs Ringer, external concentration 10^-4 M, H2 SO4 salts, m 0 or 1, n 3.
The mark [7] stands for this setting: 45° C., 60 days, read-out: Degradation at 45° C. after 60 days.
[8] abbreviates: 45° C., 120 days, read-out: Degradation at 45° C. after 120 days.
[9] abbreviates: 45° C., 180 days, read-out: Degradation at 45° C. after 180 days.
Setting [10] is: 45° C., 240 days, read-out: Degradation at 45° C. after 240 days.
The mark [11] stands for this setting: 45° C., 360 days, read-out: Degradation at 45° C. after 360 days.

As to `C[S+](CC[C@H](NC(=O)CCCC(=O)O)C(=O)[O-])C[C@H]1O[C@@H](n2cnc3c(N)ncnc32)[C@H](O)[C@@H]1O` (some centres unmarked) [H Glutaryl H, SAM glutaryl], the Fa at 2 h in series [1] amounted to 23%. Also, the “PRODUCT ABSORPTION intestine inside out” value in series [2] (setting [6]) was found to be 0.018 nmoles/h/mg tissue.

In the case of `CCCCC(=O)N[C@@H](CC[S+](C)C[C@H]1O[C@@H](n2cnc3c(N)ncnc32)[C@H](OC(=O)CCCC)[C@@H]1OC(=O)CCCC)C(=O)[O-]` (some centres unmarked) [H COC4 H9 COC4 H9], the Fa at 2 h in series [1] stood at 87%. Further, the “PRODUCT ABSORPTION intestine inside out” value in series [2] (setting [6]) came to 0.031 nmoles/h/mg tissue.

As for `CC(=O)O[C@@H]1[C@H](OC(C)=O)[C@@H](C[S+](C)CC[C@H](NC(=O)CCC(=O)O)C(=O)[O-])O[C@H]1n1cnc2c(N)ncnc21` (some centres unmarked) [H Succinyl COCH3, SAM succinyl-diacetyl], the Fa at 2 h in series [1] turned out to be 91%. Also, in series [2] (setting [6]), the “PRODUCT ABSORPTION intestine inside out” value is recorded as 0.035 nmoles/h/mg tissue.

For the compound `C[S+](CC[C@H](NC(=O)CCC(=O)O)C(=O)[O-])C[C@H]1O[C@@H](n2cnc3c(N)ncnc32)[C@H](O)[C@@H]1O` (some centres unmarked) [H Succinyl H, SAM succinyl], in series [1], the Fa at 2 h turned out to be 25%. Also, the “PRODUCT ABSORPTION intestine inside out” value in series [2] (setting [6]) is 0.016 nmoles/h/mg tissue.

For the compound `CC(=O)N[C@@H](CC[S+](C)C[C@H]1O[C@@H](n2cnc3c(N)ncnc32)[C@H](OC(C)=O)[C@@H]1OC(C)=O)C(=O)[O-]` (some centres unmarked) [H COCH3 COCH3, SAM triacetyl], the Fa at 2 h in series [1] was 65%. In addition, the “PRODUCT ABSORPTION intestine inside out” value in series [2] (setting [6]) is 0.047 nmoles/h/mg tissue.

In the case of `CCCCCOC(=O)[C@@H](N)CC[S+](C)C[C@H]1O[C@@H](n2cnc3c(N)ncnc32)[C@H](O)[C@@H]1O` (some centres unmarked) [C5 H11 H H, SAM n-pentyl ester], the Fa at 2 h in series [1] is 68%. Also, the “PRODUCT ABSORPTION intestine inside out” value in series [2] (setting [6]) is recorded as 0.025 nmoles/h/mg tissue.

In series [3] (pH 2), `C[S+](CC[C@H](N)C(=O)[O-])C[C@H]1O[C@@H](n2cnc3c(N)ncnc32)[C@H](O)[C@@H]1O` (some centres unmarked) [H, S-adenosylmethionine] registered a degraded at 0.25 h of 80%, a degraded at 0.5 h of 100%, a degraded at 1 h of 100% and a degraded at 4 h of 100%. In series [3] (pH 3), the degraded at 0.25 h worked out at 90%, the degraded at 0.5 h turned out to be 100%, the degraded at 1 h turned out to be 100% and the degraded at 4 h came to 100%. In series [3] (pH 4), this compound displayed a degraded at 0.25 h of 100%, a degraded at 0.5 h of 100%, a degraded at 1 h of 100% and a degraded at 4 h of 100%. Besides, the “PRODUCT ABSORPTION intestine inside out” value in series [2] is recorded as 0.009 nmoles/h/mg tissue.

Regarding `Cc1ccc(S(=O)(=O)N[C@@H](CC[S+](C)C[C@H]2O[C@@H](n3cnc4c(N)ncnc43)[C@H](O)[C@@H]2O)C(=O)[O-])cc1` (some centres unmarked) [H p.tol. sulphon. H, SAM p-toluenesulphonyl], the Fa at 2 h in series [1] is 13%. Also, the “PRODUCT ABSORPTION intestine inside out” value in series [2] (setting [6]) is listed as 0.021 nmoles/h/mg tissue.

With `CCOC(=O)[C@@H](N)CC[S+](C)C[C@H]1O[C@@H](n2cnc3c(N)ncnc32)[C@H](O)[C@@H]1O` (some centres unmarked) [C2 H5, SAM ethyl ester], in series [3] (pH 2), the degraded at 0.25 h amounted to 2%, the degraded at 0.5 h amounted to 4%, the degraded at 1 h turned out to be 8% and the degraded at 4 h stood at 35%. Moreover, in series [3] (pH 3), the degraded at 0.25 h was found to be 3%, the degraded at 0.5 h was 6%, the degraded at 1 h is 13% and the degraded at 4 h stood at 55%. In series [3] (pH 4), this compound came in with a degraded at 0.25 h of 5%, a degraded at 0.5 h of 9%, a degraded at 1 h of 19% and a degraded at 4 h of 80%. Further, the Fa at 2 h in series [1] stood at 59%. Moreover, the “PRODUCT ABSORPTION intestine inside out” value in series [2] (setting [6]) turned out to be 0.061 nmoles/h/mg tissue.

Consider `C[S+](CC[C@H](N)C(=O)[O-])C[C@H]1O[C@@H](n2cnc3c(N)ncnc32)[C@H](O)[C@@H]1O` (some centres unmarked) [SAM. H2 SO4, S-adenosylmethionine], for which, in series [4], the degraded at 1440 h was 80%, the degraded at 2880 h was 100%, the degraded at 4320 h amounted to 100% and the degraded at 5760 h was found to be 100%. Further, the degraded at 8640 h in series [4] worked out at 100%.

Take `CC(=O)N[C@@H](CC[S+](C)C[C@H]1O[C@@H](n2cnc3c(N)ncnc32)[C@H](OC(C)=O)[C@@H]1OC(C)=O)C(=O)[O-]` (some centres unmarked) [SAM triacetyl. 2 H2 SO4, SAM triacetyl]: the degraded at 1440 h in series [4] (setting [7]) was determined as 1%. Further, the degraded at 2880 h in series [4] (setting [8]) is 1.9%. Further, the degraded at 4320 h in series [4] (setting [9]) stood at 4.1%. Further, the degraded at 5760 h in series [4] (setting [10]) worked out at 5.9%. Moreover, the degraded at 8640 h in series [4] (setting [11]) is 8%.

As for `CCCCCCOC(=O)[C@@H](N)CC[S+](C)C[C@H]1O[C@@H](n2cnc3c(N)ncnc32)[C@H](O)[C@@H]1O` (some centres unmarked) [C6 H13 H H, SAM n-hexyl ester], the Fa at 2 h in series [1] was 67%. Moreover, the “PRODUCT ABSORPTION intestine inside out” value in series [2] (setting [6]) was determined as 0.023 nmoles/h/mg tissue.

Regarding SAM n-octyl [H Octyl H], the “PRODUCT ABSORPTION in sacs” value in series [5] is reported as 62 % of dose. In series [2] (setting [6]), the “PRODUCT ABSORPTION intestine inside out” value turned out to be 0.023 nmoles/h/mg tissue.

Regarding `CCCCC(=O)N[C@@H](CC[S+](C)C[C@H]1O[C@@H](n2cnc3c(N)ncnc32)[C@H](O)[C@@H]1O)C(=O)[O-]` (some centres unmarked) [H COC4 H9 H], the Fa at 2 h in series [1] came to 18%. Moreover, in series [2] (setting [6]), the “PRODUCT ABSORPTION intestine inside out” value was 0.028 nmoles/h/mg tissue.

As to `COC(=O)[C@@H](N)CC[S+](C)C[C@H]1O[C@@H](n2cnc3c(N)ncnc32)[C@H](O)[C@@H]1O` (some centres unmarked) [CH3, SAM methyl ester], in series [3] (pH 2), the degraded at 0.25 h was found to be 5%, the degraded at 0.5 h came out at 10%, the degraded at 1 h is 21% and the degraded at 4 h was 75%. Also, in series [3] (pH 3), the degraded at 0.25 h stood at 6%, the degraded at 0.5 h is 13%, the degraded at 1 h turned out to be 25% and the degraded at 4 h is 100%. In series [3] (pH 4), the degraded at 0.25 h turned out to be 8%, the degraded at 0.5 h was 18%, the degraded at 1 h came out at 40% and the degraded at 4 h is 100%. Further, in series [1], the Fa at 2 h is 55%. Besides, the “PRODUCT ABSORPTION intestine inside out” value in series [2] (setting [6]) is 0.078 nmoles/h/mg tissue.

For `CCCOC(=O)[C@@H](N)CC[S+](C)C[C@H]1O[C@@H](n2cnc3c(N)ncnc32)[C@H](O)[C@@H]1O` (some centres unmarked) [C3 H7 H H, SAM n-propyl ester], in series [1], the Fa at 2 h amounted to 61%. In addition, the “PRODUCT ABSORPTION intestine inside out” value in series [2] (setting [6]) amounted to 0.045 nmoles/h/mg tissue.

In series [3] (pH 2), `CCCCOC(=O)[C@@H](N)CC[S+](C)C[C@H]1O[C@@H](n2cnc3c(N)ncnc32)[C@H](O)[C@@H]1O` (some centres unmarked) [C4 H9, SAM n-butyl ester] showed a degraded at 0.25 h of 2%, a degraded at 0.5 h of 4%, a degraded at 1 h of 8% and a degraded at 4 h of 30%. Moreover, in series [3] (pH 3), the degraded at 0.25 h came to 3%, the degraded at 0.5 h is 6%, the degraded at 1 h was 12% and the degraded at 4 h came to 52%. In series [3] (pH 4), this compound gave a degraded at 0.25 h of 4%, a degraded at 0.5 h of 9%, a degraded at 1 h of 17% and a degraded at 4 h of 75%. Also, the Fa at 2 h in series [1] amounted to 65%. In series [2] (setting [6]), the “PRODUCT ABSORPTION intestine inside out” value came to 0.037 nmoles/h/mg tissue.

As to `CC(=O)N[C@@H](CC[S+](C)C[C@H]1O[C@@H](n2cnc3c(N)ncnc32)[C@H](O)[C@@H]1O)C(=O)[O-]` (some centres unmarked) [SAM monoacetyl. 2 H2 SO4, SAM monoacetyl], the degraded at 1440 h in series [4] (setting [7]) stood at 0%. Also, in series [4] (setting [8]), the degraded at 2880 h was 1.4%. Also, the degraded at 4320 h in series [4] (setting [9]) came to 3%. In addition, the degraded at 5760 h in series [4] (setting [10]) stood at 4.6%. In addition, the degraded at 8640 h in series [4] (setting [11]) came to 5.5%.

Turning to SAM n-dodecyl [H Dodecyl H], the “PRODUCT ABSORPTION in sacs” value in series [5] is reported as 65 % of dose. Further, the “PRODUCT ABSORPTION intestine inside out” value in series [2] (setting [6]) is listed as 0.019 nmoles/h/mg tissue.

Regarding `CC(=O)N[C@@H](CC[S+](C)C[C@H]1O[C@@H](n2cnc3c(N)ncnc32)[C@H](O)[C@@H]1O)C(=O)[O-]` (some centres unmarked) [H COCH3 H, SAM monoacetyl], in series [1], the Fa at 2 h was 10%. Besides, the “PRODUCT ABSORPTION intestine inside out” value in series [2] (setting [6]) came to 0.046 nmoles/h/mg tissue.

Take `C[S+](CC[C@H](NC(=O)c1ccccc1)C(=O)[O-])C[C@H]1O[C@@H](n2cnc3c(N)ncnc32)[C@H](O)[C@@H]1O` (some centres unmarked) [H COC6 H5 H, SAM benzoyl]: the Fa at 2 h in series [1] worked out at 12%. Also, the “PRODUCT ABSORPTION intestine inside out” value in series [2] (setting [6]) is reported as 0.017 nmoles/h/mg tissue.
